A short description of data set [1]: Aqueous solubility assay in Normal Ringer Solution. As to conditions: Normal Ringer Solution, saline or isotonic, kinetic from dmso stock. The protocol:
Following vortex and incubation for a sufficient time (e.g. 40 minutes at room temperature), solutions were filtered, quenched with acetonitrile, and analyzed by Liquid Chromotography. Solubility Limits were determined by comparison to a standard curve.

The nature of data set [2]: Metabolic Stability assay, rat liver microsomes. It counts as in vitro ADME. To be noted: read-out: LM T1/2 (min) rat. An outline of the steps: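 Test article at 1 μM starting concentration incubated with human or rat liver microsomes at 37 °C, with the reaction started by NADPH regeneration components. Aliquots were quenched in cold acetonitrile/MeOH/H2O at 0, 7, 15, 30 and 60 min and analysed by HPLC/MS/MS.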

A further data set concerns the target hTRPV3 (Homo sapiens (Human), UniProt Q8NET8). Description: Whole-cell patch clamp, hTRPV3 Phase 1 / Phase 2 currents. It is filed as cell-based. In short, it runs like this: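 Whole-cell recordings on induced TRPV3 cells replated on coverslips, held at −40 mV with 400 ms ramps from −120 to +100 mV every 5 s; currents read at −80 and +80 mV. Ringer's external solution; current activated by heating to ≥28 °C or 20 μM 2-APB.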
A general note: The patch-clamp technique gives a direct electrical read-out from membranes.

A further data set addresses human hERG channels (Homo sapiens (Human), UniProt Q12809). Description: hERG assay (patch clamp, CHO cells). It is filed as cell-based. As to the method: hERG assay: Briefly, cells from a stable CHO cell line expressing human hERG channels were plated onto glass coverslips and used in patch clamp assays on the same day. After seal formation and break-in to whole-cell configuration, voltage steps were applied as follows: from the holding potential of −90 mV, a 2 second long step to +40 mV was applied, followed by a 1.5 second step to −50 mV. These steps were applied once every 5 seconds. The hERG current was measured at the peak of the outward tail current at −50 mV. The pipette solution was potassium aspartate based and the external solution was normal Ringer's.
All currents were recorded in whole-cell configuration using an Axopatch 200B controlled by pClamp 10 software (Molecular Devices). In each cell, when the current stabilized, the compound was perfused locally onto the cell. Two to three concentrations of the test compound were applied to each cell. At the end of compound testing, 10 μM verapamil was applied to completely block hERG currents and assess leak current.
Data were analyzed by computing the degree of current block after compound addition compared with the unblocked current amplitude. The unblocked current was predicted from the interpolation between the current amplitude prior to compound addition and after compound washout. The resulting percent block at each concentration was used to make a concentration-response plot and fitted to the Hill equation: percent block=minimum block+(maximum block-minimum block)/(1+10^(Hill slope*(log IC50−concentration))).

Setting [3] is: Phase 1 current, human TRPV3, read-out: hTRPV3 (nM) Phase 1.
Setting [4] is: Phase 1 current, inward, whole-cell patch clamp, read-out: hTRPV3 Patch P1 Inwd.

Converted amounts (≈) assume the structure as drawn. Like-named read-outs stand apart in the source and are kept apart here.

Sequence of hTRPV3 (Q8NET8 whole entry): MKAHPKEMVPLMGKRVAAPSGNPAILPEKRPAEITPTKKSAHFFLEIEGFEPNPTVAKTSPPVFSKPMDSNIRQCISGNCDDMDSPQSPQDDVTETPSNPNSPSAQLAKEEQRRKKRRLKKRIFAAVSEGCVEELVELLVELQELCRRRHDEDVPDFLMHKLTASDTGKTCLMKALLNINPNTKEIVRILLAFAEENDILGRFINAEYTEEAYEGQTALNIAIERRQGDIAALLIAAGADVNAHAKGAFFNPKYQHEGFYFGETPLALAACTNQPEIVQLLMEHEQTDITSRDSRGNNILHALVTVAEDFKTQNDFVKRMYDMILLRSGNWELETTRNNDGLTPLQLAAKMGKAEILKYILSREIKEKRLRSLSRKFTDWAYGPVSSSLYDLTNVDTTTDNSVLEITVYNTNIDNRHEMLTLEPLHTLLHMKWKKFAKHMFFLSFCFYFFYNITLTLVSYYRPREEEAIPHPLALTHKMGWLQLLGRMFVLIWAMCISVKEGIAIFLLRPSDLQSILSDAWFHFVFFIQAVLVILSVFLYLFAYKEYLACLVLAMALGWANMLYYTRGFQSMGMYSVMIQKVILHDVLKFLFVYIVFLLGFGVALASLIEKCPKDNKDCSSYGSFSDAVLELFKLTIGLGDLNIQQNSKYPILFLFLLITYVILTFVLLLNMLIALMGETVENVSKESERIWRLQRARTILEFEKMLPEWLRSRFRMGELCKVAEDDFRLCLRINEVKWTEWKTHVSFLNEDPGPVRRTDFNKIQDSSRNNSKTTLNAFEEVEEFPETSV
Sequence of human hERG channels (Q12809 whole entry): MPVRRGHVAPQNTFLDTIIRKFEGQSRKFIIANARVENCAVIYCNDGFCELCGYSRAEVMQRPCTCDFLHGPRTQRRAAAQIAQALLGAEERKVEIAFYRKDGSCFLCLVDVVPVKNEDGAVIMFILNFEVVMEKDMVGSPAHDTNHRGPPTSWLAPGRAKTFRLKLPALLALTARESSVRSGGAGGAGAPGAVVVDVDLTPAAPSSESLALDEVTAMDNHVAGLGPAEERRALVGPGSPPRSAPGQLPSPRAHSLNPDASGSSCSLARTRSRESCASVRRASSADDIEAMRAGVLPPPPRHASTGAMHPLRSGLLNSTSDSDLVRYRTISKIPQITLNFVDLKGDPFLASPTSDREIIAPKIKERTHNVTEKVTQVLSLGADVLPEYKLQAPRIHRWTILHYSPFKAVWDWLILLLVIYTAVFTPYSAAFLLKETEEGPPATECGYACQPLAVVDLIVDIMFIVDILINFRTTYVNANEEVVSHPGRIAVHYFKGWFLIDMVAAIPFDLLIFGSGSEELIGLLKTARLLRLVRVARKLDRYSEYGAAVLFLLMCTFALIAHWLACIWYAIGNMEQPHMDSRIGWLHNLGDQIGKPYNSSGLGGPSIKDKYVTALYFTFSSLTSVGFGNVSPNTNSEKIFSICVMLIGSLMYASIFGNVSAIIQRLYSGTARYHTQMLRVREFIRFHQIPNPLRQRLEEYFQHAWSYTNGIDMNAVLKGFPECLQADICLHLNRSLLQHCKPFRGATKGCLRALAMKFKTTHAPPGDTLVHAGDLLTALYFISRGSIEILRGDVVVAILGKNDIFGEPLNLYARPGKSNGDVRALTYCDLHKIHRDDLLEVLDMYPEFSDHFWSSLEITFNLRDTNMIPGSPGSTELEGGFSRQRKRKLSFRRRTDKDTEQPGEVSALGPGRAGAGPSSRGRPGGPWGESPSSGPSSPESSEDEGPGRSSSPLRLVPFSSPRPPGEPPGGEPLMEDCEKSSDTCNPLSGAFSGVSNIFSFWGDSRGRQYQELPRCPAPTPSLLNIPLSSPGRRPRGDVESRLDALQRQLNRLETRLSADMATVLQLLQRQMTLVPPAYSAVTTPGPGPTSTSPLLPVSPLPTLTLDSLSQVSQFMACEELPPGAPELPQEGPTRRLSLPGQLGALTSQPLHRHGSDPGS

As for `CC(C)c1ccccc1-c1ccc(C2CCN(C(=O)c3ccccn3)C2)c(CO)c1` (centres unmarked) [Compound 2-42], the solubility at 40 min in data set [1] is above 19.7 µM. In data set [2], the half-life at 1 μM worked out at 11.7 min. For the same compound, the IC50 at hTRPV3 (setting [3]) is 22.7 nM; on hTRPV3 (setting [4]), 10 to 100 nM; on human hERG channels ((PL), read-out: hERG (nM) (PL)), 18300 nM.
The matching figures for `CC(C)c1ccccc1Oc1ccc(C2CCN(C(=O)c3ncccc3Cl)C2)c(C(N)=O)c1` (centres unmarked) [Compound 2-26, 2-(1-(3-chloropicolinoyl)pyrrolidin-3-yl)-5-(2-isopropylphenoxy)benzamide]: above 19.2 µM, 19.7 min, 217 nM, 100 to 1000 nM and 10400 nM.
The matching figures for `CCc1ccccc1-c1ccc(C2CCN(C(=O)c3ccc(C(F)(F)F)cn3)C2)c(CO)c1` (centres unmarked) [Compound 2-47, (3-(2′-ethyl-3-(hydroxymethyl)biphenyl-4-yl)pyrrolidin-1-yl)(5-(trifluoromethyl)pyridin-2-yl)methanone]: around 5.6 µM (≈ 2.55 µg/mL), 28.1 min, 18.4 nM, 10 to 100 nM and 17200 nM.
Regarding `CCc1cncnc1Oc1ccc(C2CCN(C(=O)c3ncccc3Cl)C2)c(CO)c1` (centres unmarked) [Compound 2-22, (3-chloropyridin-2-yl)(3-(4-(5-ethylpyrimidin-4-yloxy)-2-(hydroxymethyl)phenyl)pyrrolidin-1-yl)methanone], in data set [1], the solubility at 40 min was above 20.3 µM. In data set [2], the half-life at 1 μM amounted to 31.8 min. Also, the IC50 is above 3200 nM at hTRPV3 (setting [3]); above 1000 nM at hTRPV3 (setting [4]); above 32000 nM at human hERG channels ((PL), read-out: hERG (nM) (PL)).
Regarding `CC(C)c1ccccc1Oc1ccc(C2CCN(Cc3ccccn3)C2)c(CO)c1` (centres unmarked) [Compound 2-87, (5-(2-isopropylphenoxy)-2-(1-(pyridin-2-ylmethyl)pyrrolidin-3-yl)phenyl)methanol], the half-life at 1 μM in data set [2] was determined as 2.46 min. For the same compound, the IC50 at hTRPV3 (setting [3]) was 699 nM; at hTRPV3 (setting [4]), 100 to 1000 nM; at human hERG channels ((PL), read-out: hERG (nM) (PL)) it was 260 nM.
On to `CC(C)c1ccccc1Oc1ccc(C2CCN(C(=O)c3ccc(F)cn3)C2)c(CO)c1` (centres unmarked) [Compound 2-16, (5-fluoropyridin-2-yl)(3-(2-(hydroxymethyl)-4-(2-isopropylphenoxy)phenyl)pyrrolidin-1-yl)methanone], for which, in data set [1], the solubility at 40 min is around 4.7 µM (≈ 2.04 µg/mL). In data set [2], the half-life at 1 μM came to 5.3 min. In addition, the IC50 was 29.7 nM on hTRPV3 (setting [3]); 10 to 100 nM on hTRPV3 (setting [4]); 25.7 nM on hTRPV3 (Phase 2 current, human TRPV3, read-out: hTRPV3 (nM) Phase 2); 10 to 100 nM at hTRPV3 (Phase 2 current, inward, whole-cell patch clamp, read-out: hTRPV3 Patch P2 Inwd); 9650 nM at human hERG channels ((PL), read-out: hERG (nM) (PL)).
As for `CCOc1ccccc1-c1ccc(C2CCN(C(=O)c3ccc(Cl)cn3)C2)c(CO)c1` (centres unmarked) [Compound 2-69, (5-chloropyridin-2-yl)(3-(2′-ethoxy-3-(hydroxymethyl)biphenyl-4-yl)pyrrolidin-1-yl)methanone], the solubility at 40 min in data set [1] is above 16 µM. For the same compound, in data set [2], the half-life at 1 μM turned out to be 12.6 min. Also, the IC50 at hTRPV3 (setting [3]) is 25.3 nM; on hTRPV3 (setting [4]) it was 10 to 100 nM; at human hERG channels ((PL), read-out: hERG (nM) (PL)), 12300 nM.
`CC(C)c1ccccc1Oc1ccc(C2CC(=O)N(Cc3ccccn3)C2)c(CO)c1` (centres unmarked) [Compound 2-93, 4-(2-(hydroxymethyl)-4-(2-isopropylphenoxy)phenyl)-1-(pyridin-2-ylmethyl)pyrrolidin-2-one] registered a solubility at 40 min in data set [1] of around 4.2 µM (≈ 1.75 µg/mL). In addition, in data set [2], the half-life at 1 μM came to 5.05 min. Moreover, the IC50 on hTRPV3 (setting [3]) was 205 nM; on hTRPV3 (setting [4]), 100 to 1000 nM; at human hERG channels, around 5970 nM; at human hERG channels ((M), read-out: hERG), around 10800 nM.
The compound `CCc1ccccc1-c1ccc(C2CCN(C(=O)c3ccc(F)cn3)C2)c(CO)c1` (centres unmarked) [Compound 2-28, (3-(2′-ethyl-3-(hydroxymethyl)biphenyl-4-yl)pyrrolidin-1-yl)(5-fluoropyridin-2-yl)methanone] registered a solubility at 40 min in data set [1] above 15 µM. Besides, the half-life at 1 μM in data set [2] worked out at 18.4 min. Further, the IC50 was 19.6 nM on hTRPV3 (setting [3]); 10 to 100 nM at hTRPV3 (setting [4]); 13700 nM at human hERG channels ((PL), read-out: hERG (nM) (PL)).
The matching figures for `O=C(c1cnccn1)N1CCC(c2ccc(-c3ccccc3C3CC3)cc2CO)C1` (centres unmarked) [Compound 2-105, (3-(2′-cyclopropyl-3-(hydroxymethyl)biphenyl-4-yl)pyrrolidin-1-yl)(pyrazin-2-yl)methanone]: above 21 µM, 12.9 min, 61.2 nM, 10 to 100 nM and 11700 nM.
The matching figures for `CCc1c(C)cccc1-c1ccc(C2CCN(C(=O)c3ccc(F)cn3)C2)c(CO)c1` (centres unmarked) [Compound 2-64, (3-(2′-ethyl-3-(hydroxymethyl)-3′-methylbiphenyl-4-yl)pyrrolidin-1-yl)(5-fluoropyridin-2-yl)methanone]: above 15.7 µM, 6.38 min, 18 nM, 10 to 100 nM and 10100 nM.
In the case of `CCc1ccccc1Oc1ccc(C2CCN(C(=O)c3ncccc3Cl)C2)c(CO)c1` (centres unmarked) [Compound 2-83, (3-chloropyridin-2-yl)(3-(4-(2-ethylphenoxy)-2-(hydroxymethyl)phenyl)pyrrolidin-1-yl)methanone], in data set [1], the solubility at 40 min was above 11 µM. Further, in data set [2], the half-life at 1 μM was found to be 9.46 min. Moreover, the IC50 on hTRPV3 (setting [3]) was determined as 95.1 nM; at human hERG channels ((PL), read-out: hERG (nM) (PL)), 16000 nM.
Consider `CC(C)c1ccccc1Oc1ccc(C2CCN(C(=O)c3ncccc3Cl)C2)c(CO)c1` (centres unmarked) [Compound 2-12, (3-chloropyridin-2-yl)(3-(2-(hydroxymethyl)-4-(2-isopropylphenoxy)phenyl)pyrrolidin-1-yl)methanone], for which the solubility at 40 min in data set [1] was above 8 µM. Further, in data set [2], the half-life at 1 μM worked out at 7.55 min. Besides, the IC50 at hTRPV3 (setting [3]) is 101 nM; at hTRPV3 (setting [4]), 10 to 100 nM; at human hERG channels ((PL), read-out: hERG (nM) (PL)), 12600 nM.
Compound `CCc1ccccc1-c1ccc(C2CCN(C(=O)c3cc(Cl)ccn3)C2)c(CO)c1` (centres unmarked) [Compound 2-48, (4-chloropyridin-2-yl)(3-(2′-ethyl-3-(hydroxymethyl)biphenyl-4-yl)pyrrolidin-1-yl) methanone] yielded a solubility at 40 min in data set [1] above 8 µM. In addition, the half-life at 1 μM in data set [2] worked out at 7.54 min. Moreover, the IC50 was 69.3 nM at hTRPV3 (setting [3]); 10 to 100 nM on hTRPV3 (setting [4]); 13400 nM at human hERG channels ((PL), read-out: hERG (nM) (PL)).
Consider `O=C(c1ccc(F)cn1)N1CCC(c2ccc(-c3ccccc3)nc2CO)C1` (centres unmarked) [Compound 2-80], for which the IC50 is 163 nM at hTRPV3 (setting [3]); 100 to 1000 nM at hTRPV3 (setting [4]); 5520 nM at human hERG channels ((PL), read-out: hERG (nM) (PL)).
Consider `CC(C)c1ccccc1Oc1ccc(C2CCN(C(=O)c3cccc(Cl)n3)C2)c(CO)c1` (centres unmarked) [Compound 2-20, (6-chloropyridin-2-yl)(3-(2-(hydroxymethyl)-4-(2-isopropylphenoxy)phenyl)pyrrolidin-1-yl)methanone], for which the solubility at 40 min in data set [1] was around 1.6 µM (≈ 0.722 µg/mL). Besides, in data set [2], the half-life at 1 μM was determined as 8.33 min. For the same compound, the IC50 on hTRPV3 (setting [3]) was 62 nM; on hTRPV3 (setting [4]), 10 to 100 nM; at human hERG channels, around 5330 nM; on human hERG channels ((M), read-out: hERG), 3910 nM.

One may read the solubility as the dissolved amount per volume that the medium holds. Low values mean little dissolved substance, high ones much dissolved substance.

(Values after patent US12435061B2 (priority 2020, dated 2025).)
